Laboratory results reported in US5585095A, “Method to enhance thrombomodulin APC generation using cationic proteins” (Regents of the University of Minnesota, priority 1993, dated 1996).

How the values were obtained:
GAG+ TM [1] = target: T1, GAG+ TM (Homo sapiens, UniProt P07204); assay: APC generation by recombinant GAG+ TM with thrombin and protein C (chromogenic S-2366); format: biochemical; conditions: for acceleratory effect upon APC generation by thrombomodulin (GAG+ TM): conditions of Example 1, GAG+ TM, FIG. 4
T1 construct: encompassing the entire extracellular domain ([amino acids 1-497], which includes the serine 492 glycosylation site); host or cells: Chinese Hamster Ovary cells
Method: (§1) Human PF4 was purified from outdated platelets by THR stimulation, NH4 SO4 precipitation, heparin affinity chromatography, and Scphadex G-100 chromatography using a technique described in T. F. Deuel et al., Proc. Natl. Acad. Sci. USA, 74, 2256-2258 (1977), which is incorporated herein by reference. Dose-response studies were then performed with increasing amounts of PF4 to assay its effect upon the ability of three TM preps to generate APC from protein C. The three TM preps employed were: a) full-length rabbit TM purified from lungs (see, N. L. Esmon et al., J. Biol. Chem., 257, 859-864 (1982)); and b) two differentially glycated versions of a recombinantly produced polypeptide fragment of human TM encompassing the entire extracellular domain ([amino acids 1-497], which includes the serine 492 glycosylation site) expressed in Chinese Hamster Ovary cells, provided by Berlex Biosciences (Richmond, Calif.). See, C. B. Glaser et al., J. Clin. Invest., 90, 2565-2573 (1992). These polypeptides were produced in two chromatographically separable forms: the first has an apparent molecular weight of 116 kD and contains a chondroitinase ABC-cleavable GAG moiety (henceforth referred to GAG+ TM); the second is an unglycated version of the same polypeptide with apparent molecular weight of 95 kD, henceforth referred to as GAG- TM.
(§2) For each type of TM, 2 nM TM and 500 nM protein C were incubated together in the presence of 1 mM (i.e., physiologic) Ca^2+ with or without PF4, and the generation of APC initiated by the addition of 2 nM THR in 50 mM Tris, 100 mM NaCl, pH 7.4 at 37° C. The reaction was allowed to proceed for 10 minutes, then quenched by the addition of AT III (obtained from Enzyme Research Laboratories, Inc., South Bend, Ind.) and EDTA. APC was quantified spectrophotometrically with the chromogenic substrate S-2366 (obtained from Kabi Vitrum, Franklin, Ohio). The spectrophotometric analysis involved the conversion of the chromogenic substrate at 405 nM in a 37° C. spectrophotometer cell based on the initial rate of optical density change. Negative controls of plastic wells treated in a parallel fashion except that TM was omitted. Values obtained from these controls were then subtracted from the rates measured for wells containing monolayers.
The conditions used were identical to those listed in Example 1 except GAG+ TM obtained from Berlex Biosciences was used for all experiments.

full-length rabbit TM = target: T2, full-length rabbit TM (Oryctolagus cuniculus, UniProt Q8HZ48); assay: APC generation by soluble full-length rabbit TM with thrombin and protein C (chromogenic S-2366); format: biochemical; conditions: 2 nM TM, 500 nM protein C, 1 mM Ca2+, 2 nM THR, 10 min, 37° C., over baseline
T2 construct: full-length rabbit TM purified from lungs; from tissue; host or cells: rabbit lung (purified after N. L. Esmon et al. 1982)
Method: For each type of cationic protein or modification thereof to be tested, 2 nM TM (full-length rabbit TM) and 500 nM protein C are incubated together in the presence of 1 mM (i.e., physiologic) Ca^2+ with either no cationic protein (for a baseline determination) or […] of the cationic protein. The generation of APC is initiated by the addition of 2 nM THR in 50 mM of the buffer Tris, 100 mM NaCl, pH 7.4 at 37° C. The reaction is allowed to proceed for 10 minutes, then quenched by the addition of AT III (antithrombin obtained from Enzyme Research Laboratories, Inc., South Bend, Ind.) and EDTA. […] A cationic protein that can be used in the methods and compositions of the present invention include those that show at least a two-fold increase in APC production, relative to a baseline of APC generated without the cationic protein.
Dose-response studies were then performed with increasing amounts of PF4 to assay its effect upon the ability of three TM preps to generate APC from protein C. […] See, C.
as §2, with “APC was quantified spectrophotometrically with the chromogenic substrate S-2366 (obtained from Kabi Vitrum, Franklin, Ohio). The spectrophotometric analysis involved the conversion of the chromogenic substrate at 405 nM in a 37° C. spectrophotometer cell based on the initial rate of optical density change.” left out

GAG- TM = assay: APC generation by recombinant GAG- TM with thrombin and protein C (chromogenic S-2366); format: biochemical, human
Method: as §1, with “These polypeptides were produced in two chromatographically separable forms: the first has an apparent molecular weight of 116 kD and contains a chondroitinase ABC-cleavable GAG moiety (henceforth referred to GAG+ TM); the second is an unglycated version of the same polypeptide with apparent molecular weight of 95 kD, henceforth referred to as GAG- TM.” left out
The reaction was allowed to proceed for 10 minutes, then quenched by the addition of AT III (obtained from Enzyme Research Laboratories, Inc., South Bend, Ind.) and EDTA. APC was quantified spectrophotometrically with the chromogenic substrate S-2366 (obtained from Kabi Vitrum, Franklin, Ohio). […] Values obtained from these controls were then subtracted from the rates measured for wells containing monolayers. […]

THR = assay: TM-independent activation of protein C by THR (control); format: biochemical; conditions: controls, not shown
Method: as §2
(§3) PF4 accelerates APC generation by full-length rabbit TM and GAG- TM 4-fold, and that of GAG+ TM 25-fold. GAG+ TM was also accelerated 10-fold by PF4 in the presence of 15% defibrinated plasma. […] The increase in APC was not an artifact of PF4 influencing the catalytic activity of APC towards chromogenic substrate.

TM [2] = assay: APC generation in the absence of added THR (control); format: biochemical; conditions: PF4 alone or PF4 together with TM
Method: as §2, with “The” for “For each type of TM, 2 nM TM and 500 nM protein C were incubated together in the presence of 1 mM (i.e., physiologic) Ca^2+ with or without PF4, and the generation of APC initiated by the addition of 2 nM THR in 50 mM Tris, 100 mM NaCl, pH 7.4 at 37° C. The”
as §3

[3] = system: cell-surface TM on porcine aortic endothelial cell (PAEC) monolayers; assay: APC generation by porcine aortic endothelial cell monolayers; format: cell-based
Method: In these experiments, 1 cm^2 monolayers of endothelial cells were overlaid with PBS buffer containing 500 nM PC and 1 mM Ca^2+, then further supplemented with either PBS or PBS with 15% (v/v) bovine serum. To these wells were then added increasing concentrations of purified native PF4. The resultant mixture was incubated for 20 minutes after which either 2 nM (PBS) or 10 nM THR (15% serum) was added and the generation of APC allowed to proceed for 45 minutes prior to quenching with addition of AT III and EDTA.

APC = assay: Detection of known amounts of APC in 15% serum by chromogenic substrate (control); format: biochemical; conditions: known amounts of APC added to 15% serum, not shown
Method: In addition to stimulating APC generation by soluble forms of TM in buffers, PF4 also stimulates APC generation of cell-surface TM on porcine aortic endothelial cell (PAEC) monolayers in plasmatic conditions. In these experiments, 1 cm^2 monolayers of endothelial cells were overlaid with PBS buffer containing 500 nM PC and 1 mM Ca^2+, then further supplemented with either PBS or PBS with 15% (v/v) bovine serum. To these wells were then added increasing concentrations of purified native PF4. The resultant mixture was incubated for 20 minutes after which either 2 nM (PBS) or 10 nM THR (15% serum) was added and the generation of APC allowed to proceed for 45 minutes prior to quenching with addition of AT III and EDTA. Supernatants were then centrifuged to remove cellular debris and APC generation quantified using chromogenic substrate S-2366 as described above. In the absence of added serum, there is a 2 1/2-fold increase in APC generation with an optimum at 3.3 μg/ml of PF4, but decreasing APC generation with higher concentrations. In contrast, in the presence of 15% serum, the baseline APC generation is much lower despite the presence of higher concentrations of THR. There is a PF4 dose-dependent increase in APC generation with an optimum at 33 μg/ml PF4, at which point APC generation is 10-fold higher than baseline. […]

TM [4] = assay: APC formation with exogenous TM in combination with PF4; conditions: pharmacological (exogenous) TM in combination with purified naturally occurring or recombinant PF4
Source text: The particularly preferred compositions of the present invention include those containing purified PF4, or a modification thereof, and a thrombomodulin preparation, such as purified soluble GAG+ thrombomodulin. Such compositions display particularly high levels of APC formation, and thus particularly effective levels of anticoagulation. For example, with the administration of a pharmacological form of TM, i.e., an exogenous form, in combination with purified naturally occurring or recombinant PF4, there is a 3-8 fold increase in the amount of APC formed, as compared to the administration of PF4 alone using endogenous forms of TM. This is particularly advantageous because TM and PF4, individually or together, have a higher therapeutic index than does heparin, which is currently used for anticoagulation therapy.

GAG+ TM [5] = target: T1, GAG+ TM; assay: APC generation by recombinant GAG+ TM with thrombin and protein C (chromogenic S-2366); format: biochemical
[6] = system: purified, soluble rabbit TM; conditions: polyanions added to MBP-inhibited TM; cited from earlier work
[7] = 2 nM TM, 500 nM protein C, 1 mM Ca2+, 2 nM THR, 10 min, 37° C., over baseline

T2 sequence (Q8HZ48 19-580): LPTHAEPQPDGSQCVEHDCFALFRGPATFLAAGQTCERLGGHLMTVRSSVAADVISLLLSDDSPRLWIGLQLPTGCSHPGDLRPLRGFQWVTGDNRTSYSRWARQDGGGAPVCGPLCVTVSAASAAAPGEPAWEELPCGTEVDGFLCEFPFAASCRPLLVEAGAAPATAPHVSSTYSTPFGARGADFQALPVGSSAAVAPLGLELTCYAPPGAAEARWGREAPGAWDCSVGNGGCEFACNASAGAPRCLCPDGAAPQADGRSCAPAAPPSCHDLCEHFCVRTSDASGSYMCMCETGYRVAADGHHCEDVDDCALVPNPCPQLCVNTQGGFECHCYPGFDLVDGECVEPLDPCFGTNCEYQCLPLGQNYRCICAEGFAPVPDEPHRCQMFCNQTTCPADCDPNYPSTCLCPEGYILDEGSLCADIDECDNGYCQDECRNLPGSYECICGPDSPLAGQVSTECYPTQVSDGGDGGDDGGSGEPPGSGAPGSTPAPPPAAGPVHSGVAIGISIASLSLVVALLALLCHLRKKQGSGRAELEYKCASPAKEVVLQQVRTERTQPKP
T1 sequence (P07204 19-515): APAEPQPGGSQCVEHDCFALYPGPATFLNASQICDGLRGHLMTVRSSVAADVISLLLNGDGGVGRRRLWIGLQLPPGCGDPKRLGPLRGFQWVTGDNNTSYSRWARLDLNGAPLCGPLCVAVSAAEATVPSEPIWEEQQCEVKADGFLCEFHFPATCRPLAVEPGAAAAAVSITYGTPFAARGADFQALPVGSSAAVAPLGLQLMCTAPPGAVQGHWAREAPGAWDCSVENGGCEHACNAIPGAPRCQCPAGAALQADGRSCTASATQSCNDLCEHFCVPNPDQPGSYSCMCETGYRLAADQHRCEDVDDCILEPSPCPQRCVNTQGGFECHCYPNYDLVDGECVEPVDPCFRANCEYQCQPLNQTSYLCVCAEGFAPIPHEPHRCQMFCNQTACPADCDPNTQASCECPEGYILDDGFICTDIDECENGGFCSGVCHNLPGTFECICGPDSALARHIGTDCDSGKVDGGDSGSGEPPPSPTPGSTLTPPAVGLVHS

**Q.** With chondroitin sulfate A as the substance, how does the “acceleratory effect upon APC generation by thrombomodulin (GAG+ TM)” value (from here on “acceleratory effect upon APC generation”) (GAG+ TM [1]) read?
**A.** The value was “no such effect”.

**Q.** For “PF4: moderately cationic and hydrophobic major protein constituent of platelet α-granules, 7.8 kD; human PF4 purified from outdated platelets”, which “fold acceleration of APC generation by full-length rabbit TM” value (full-length rabbit TM) is on record?
**A.** Its value is 4 fold.

**Q.** What about the “fold acceleration of APC generation by GAG- TM” value (GAG- TM; [7]) of the same substance?
**A.** Its value is 4 fold.

**Q.** And the “effect of PF4 on Ca2+ dependence of APC generation by GAG- variant” value (GAG- TM; several Ca2+ concentrations, FIG. 2)?
**A.** Its value is “increases APC generation at all Ca^2+ concentrations but does not shift the overall shape of the curve”.

**Q.** And the “fold acceleration of APC generation by GAG+ TM” value (GAG+ TM [1]; [7])?
**A.** The value was 25 fold.

**Q.** What about the “acceleration of GAG+ TM by PF4 relative to full-length rabbit TM and GAG- TM (fold-over-baseline basis)” value (GAG+ TM [1]; fold-over-baseline comparison) of the same substance?
**A.** Its value is “more than six times as much”.

**Q.** What about the “fold acceleration of APC generation by GAG+ TM in plasma” value (GAG+ TM [1]; in the presence of 15% defibrinated plasma) of the same substance?
**A.** Its value is 10 fold.

**Q.** What about the “effect upon TM-independent activation of protein C by THR” value (THR) of the same substance?
**A.** The value was “essentially no effect”.

**Q.** And the “APC generation in the absence of added THR” value (TM [2])?
**A.** The value was “neither PF4 alone nor PF4 together with TM generated APC”.

**Q.** What about the “PF4 concentration optimum for APC generation, PAEC, 15% serum” value ([3]; 15% (v/v) bovine serum, 10 nM THR) of the same substance?
**A.** Its value is 33 µg/mL.

**Q.** And the “fold increase in APC generation over baseline, PAEC, 15% serum” value ([3]; 15% (v/v) bovine serum, 10 nM THR, at 33 μg/ml PF4)?
**A.** Its value is 10 fold.

**Q.** And the “PF4 concentration optimum for APC generation, PAEC, no serum” value ([3]; PBS, absence of added serum, 2 nM THR)?
**A.** The value was 3.3 µg/mL.

**Q.** What about the “effect on APC detection by chromogenic substrate” value (APC) of the same substance?
**A.** Its value is “did not diminish or augment APC detection”.

**Q.** What about the “fold increase in the amount of APC formed, exogenous TM plus PF4 versus PF4 alone using endogenous TM” value (TM [4]) of the same substance?
**A.** The value was 3-8 fold.

**Q.** What about the “APC generation in the absence of Ca2+” value (GAG+ TM [5]; 0 calcium, buffers with 1 mM EDTA, GAG+ and GAG- forms of TM) of the same substance?
**A.** Its value is “allows both the GAG+ and GAG- forms of TM to generate APC even in the absence of Ca^2+”.

**Q.** What about the “Ca2+ optimum of APC generation by GAG+ TM with PF4 added” value (GAG+ TM [5]; PF4 added, FIG. 2) of the same substance?
**A.** Its value is 0.5 mM.

**Q.** With protamine sulfate as the substance, how does the “fold acceleration of APC generation by full-length rabbit TM” value (full-length rabbit TM) read?
**A.** Its value is 2.5 fold.

**Q.** And the “acceleratory effect upon APC generation” value (GAG+ TM [1])?
**A.** The value was “can be replicated”.

**Q.** Which “acceleratory effect upon APC generation” value (GAG+ TM [1]) does the source give for heparin here?
**A.** The value was “no such effect”.

**Q.** And the “reversal of MBP inhibition of APC generation” value [6]?
**A.** The value was “reversed”.

**Q.** Which “acceleratory effect upon APC generation” value (GAG+ TM [1]) does the source give for chondroitin sulfate E here?
**A.** The value was “no such effect”.

**Q.** And the “reversal of MBP inhibition of APC generation” value [6]?
**A.** Its value is “reversed”.

**Q.** Which “acceleratory effect upon APC generation” value (GAG+ TM [1]) does the source give for “thrombospondin: anionic protein; major constituent of platelet α-granules” here?
**A.** The value was “no such effect”.

**Q.** With poly-L-lysine as the substance, how does the “fold acceleration of APC generation by full-length rabbit TM” value (full-length rabbit TM) read?
**A.** The value was 2.5 fold.

**Q.** And the “acceleratory effect upon APC generation” value (GAG+ TM [1])?
**A.** The value was “can be replicated”.
